The source of these data is ChEMBL document CHEMBL5291721, “A preclinical secondary pharmacology resource illuminates target-adverse drug reaction associations of marketed drugs” (Nat Commun, 2023).

The target in one assay is Mu-type opioid receptor (Homo sapiens, UniProt P35372).
The next assay addresses T1, Adenosine receptor A1 (Homo sapiens, UniProt P30542).
T1 sequence (P30542 whole entry): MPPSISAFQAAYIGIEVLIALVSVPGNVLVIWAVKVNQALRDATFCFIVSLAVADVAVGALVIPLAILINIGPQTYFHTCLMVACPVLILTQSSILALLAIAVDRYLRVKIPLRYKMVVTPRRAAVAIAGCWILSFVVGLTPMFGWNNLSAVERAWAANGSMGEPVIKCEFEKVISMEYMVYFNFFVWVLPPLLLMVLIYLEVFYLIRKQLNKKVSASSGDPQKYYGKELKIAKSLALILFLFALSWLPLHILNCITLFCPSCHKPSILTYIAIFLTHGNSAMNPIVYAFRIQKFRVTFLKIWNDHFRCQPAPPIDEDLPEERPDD

The target of assay [1] is Voltage-dependent L-type calcium channel subunit alpha-1C (Rattus norvegicus, UniProt P22002). The assay is classed as functional.
Chain of Voltage-dependent L-type calcium channel subunit alpha-1C (P22002 whole entry): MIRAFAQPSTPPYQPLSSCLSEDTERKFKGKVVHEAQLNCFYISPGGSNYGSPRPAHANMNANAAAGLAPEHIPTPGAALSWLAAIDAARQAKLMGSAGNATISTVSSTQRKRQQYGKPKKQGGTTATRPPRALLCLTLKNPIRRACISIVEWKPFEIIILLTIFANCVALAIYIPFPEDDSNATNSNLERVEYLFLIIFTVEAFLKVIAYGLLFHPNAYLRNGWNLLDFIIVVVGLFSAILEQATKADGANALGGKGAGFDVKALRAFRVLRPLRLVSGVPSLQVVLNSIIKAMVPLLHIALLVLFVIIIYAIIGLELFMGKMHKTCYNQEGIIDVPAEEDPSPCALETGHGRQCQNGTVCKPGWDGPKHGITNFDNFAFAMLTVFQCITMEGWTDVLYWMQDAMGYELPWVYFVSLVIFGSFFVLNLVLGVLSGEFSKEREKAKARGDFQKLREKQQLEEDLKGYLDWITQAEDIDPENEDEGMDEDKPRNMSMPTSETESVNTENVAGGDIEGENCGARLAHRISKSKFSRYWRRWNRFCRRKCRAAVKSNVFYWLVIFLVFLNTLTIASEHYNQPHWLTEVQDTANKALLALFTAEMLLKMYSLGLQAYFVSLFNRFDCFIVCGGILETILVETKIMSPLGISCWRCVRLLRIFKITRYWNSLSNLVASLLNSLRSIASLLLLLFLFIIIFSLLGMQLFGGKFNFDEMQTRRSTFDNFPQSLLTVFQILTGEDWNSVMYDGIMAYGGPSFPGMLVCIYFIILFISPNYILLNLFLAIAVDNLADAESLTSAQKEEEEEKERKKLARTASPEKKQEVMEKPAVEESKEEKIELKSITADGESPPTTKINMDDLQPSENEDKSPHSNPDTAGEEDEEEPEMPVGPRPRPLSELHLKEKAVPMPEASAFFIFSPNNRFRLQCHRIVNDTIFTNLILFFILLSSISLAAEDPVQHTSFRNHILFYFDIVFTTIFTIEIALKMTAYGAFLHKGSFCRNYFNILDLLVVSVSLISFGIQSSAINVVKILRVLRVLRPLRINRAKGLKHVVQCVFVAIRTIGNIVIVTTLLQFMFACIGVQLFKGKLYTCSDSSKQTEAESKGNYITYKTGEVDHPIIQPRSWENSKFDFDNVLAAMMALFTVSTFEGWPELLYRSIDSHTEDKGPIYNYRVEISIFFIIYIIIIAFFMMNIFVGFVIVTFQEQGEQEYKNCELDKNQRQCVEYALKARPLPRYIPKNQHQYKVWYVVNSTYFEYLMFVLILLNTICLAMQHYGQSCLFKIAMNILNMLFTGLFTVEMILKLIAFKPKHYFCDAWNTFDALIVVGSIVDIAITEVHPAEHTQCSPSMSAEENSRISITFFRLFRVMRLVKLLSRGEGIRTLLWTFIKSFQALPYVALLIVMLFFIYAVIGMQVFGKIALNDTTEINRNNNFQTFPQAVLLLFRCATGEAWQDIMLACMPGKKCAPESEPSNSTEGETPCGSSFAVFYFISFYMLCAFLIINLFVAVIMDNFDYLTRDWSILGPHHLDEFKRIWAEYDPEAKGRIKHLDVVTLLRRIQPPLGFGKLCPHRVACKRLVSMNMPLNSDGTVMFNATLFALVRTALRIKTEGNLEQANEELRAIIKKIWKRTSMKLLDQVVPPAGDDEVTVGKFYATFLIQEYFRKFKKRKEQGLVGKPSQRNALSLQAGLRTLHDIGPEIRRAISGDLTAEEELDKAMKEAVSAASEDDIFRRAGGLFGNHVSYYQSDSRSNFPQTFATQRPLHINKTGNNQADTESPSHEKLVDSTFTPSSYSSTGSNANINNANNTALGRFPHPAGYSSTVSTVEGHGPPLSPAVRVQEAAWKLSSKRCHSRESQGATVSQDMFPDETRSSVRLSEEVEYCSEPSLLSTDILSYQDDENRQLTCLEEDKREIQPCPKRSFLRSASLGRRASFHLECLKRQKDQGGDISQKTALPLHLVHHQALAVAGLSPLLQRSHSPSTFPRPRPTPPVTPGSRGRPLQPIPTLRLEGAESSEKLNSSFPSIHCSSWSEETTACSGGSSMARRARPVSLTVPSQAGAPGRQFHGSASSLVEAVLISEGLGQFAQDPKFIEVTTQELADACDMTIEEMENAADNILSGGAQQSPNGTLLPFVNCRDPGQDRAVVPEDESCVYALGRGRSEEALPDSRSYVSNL
Assay [2] deals with T2, Alpha-2A adrenergic receptor (Homo sapiens, UniProt P08913).
T2 sequence (P08913 whole entry): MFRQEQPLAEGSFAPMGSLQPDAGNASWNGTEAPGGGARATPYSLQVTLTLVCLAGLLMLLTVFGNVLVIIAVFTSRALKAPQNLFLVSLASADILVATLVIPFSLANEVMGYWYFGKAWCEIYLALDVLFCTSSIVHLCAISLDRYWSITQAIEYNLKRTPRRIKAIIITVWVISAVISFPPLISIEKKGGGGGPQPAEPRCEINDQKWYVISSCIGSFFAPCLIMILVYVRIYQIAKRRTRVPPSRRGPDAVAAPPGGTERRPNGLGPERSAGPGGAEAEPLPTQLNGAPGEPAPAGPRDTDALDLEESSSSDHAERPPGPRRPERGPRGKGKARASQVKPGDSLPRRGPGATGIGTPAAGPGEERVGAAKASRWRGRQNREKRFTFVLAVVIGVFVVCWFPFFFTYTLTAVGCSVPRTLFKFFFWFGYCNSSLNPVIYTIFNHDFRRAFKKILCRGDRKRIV
The assay is classed as functional, cell-based.

The target of assay [3] is Sodium-dependent dopamine transporter (Homo sapiens, UniProt Q01959).
Chain of Sodium-dependent dopamine transporter (Q01959 whole entry): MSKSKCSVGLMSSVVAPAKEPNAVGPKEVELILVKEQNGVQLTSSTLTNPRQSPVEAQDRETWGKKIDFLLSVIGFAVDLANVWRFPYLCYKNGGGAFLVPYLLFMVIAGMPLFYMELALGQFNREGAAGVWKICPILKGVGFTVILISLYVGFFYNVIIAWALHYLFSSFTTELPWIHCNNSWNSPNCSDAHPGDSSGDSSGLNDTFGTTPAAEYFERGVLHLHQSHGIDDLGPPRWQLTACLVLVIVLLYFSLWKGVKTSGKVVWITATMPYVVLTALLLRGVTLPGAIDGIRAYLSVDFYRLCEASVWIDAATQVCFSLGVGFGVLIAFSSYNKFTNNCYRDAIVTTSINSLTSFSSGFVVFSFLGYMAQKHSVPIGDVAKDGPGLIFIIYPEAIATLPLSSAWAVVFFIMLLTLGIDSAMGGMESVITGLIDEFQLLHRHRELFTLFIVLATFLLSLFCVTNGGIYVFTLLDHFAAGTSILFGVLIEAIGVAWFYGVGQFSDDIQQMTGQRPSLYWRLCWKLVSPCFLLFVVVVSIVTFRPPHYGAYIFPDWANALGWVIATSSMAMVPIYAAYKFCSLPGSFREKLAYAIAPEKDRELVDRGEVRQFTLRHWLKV
Assay [4] has as its target T3, Prostaglandin G/H synthase 1 (Rattus norvegicus, UniProt Q63921).
T3 sequence (Q63921 whole entry): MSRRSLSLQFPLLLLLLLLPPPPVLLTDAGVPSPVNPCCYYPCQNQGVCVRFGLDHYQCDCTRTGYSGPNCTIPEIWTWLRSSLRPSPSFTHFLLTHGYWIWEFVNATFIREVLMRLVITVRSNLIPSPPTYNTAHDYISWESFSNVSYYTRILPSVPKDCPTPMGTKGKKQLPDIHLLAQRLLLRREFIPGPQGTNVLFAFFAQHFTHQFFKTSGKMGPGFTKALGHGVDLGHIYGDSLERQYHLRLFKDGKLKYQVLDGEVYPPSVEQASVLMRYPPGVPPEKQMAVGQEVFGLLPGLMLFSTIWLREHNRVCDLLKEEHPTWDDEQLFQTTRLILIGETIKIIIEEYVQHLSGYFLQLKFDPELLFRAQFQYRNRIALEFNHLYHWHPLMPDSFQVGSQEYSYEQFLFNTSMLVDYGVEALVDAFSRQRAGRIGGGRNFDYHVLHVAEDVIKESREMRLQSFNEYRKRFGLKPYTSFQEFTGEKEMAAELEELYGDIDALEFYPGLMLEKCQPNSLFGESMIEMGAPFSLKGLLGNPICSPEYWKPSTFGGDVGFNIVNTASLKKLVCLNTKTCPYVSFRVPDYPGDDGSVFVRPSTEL
The assay is classed as functional.
Note: assay procedure not described here.

Chain of Mu-type opioid receptor (P35372 whole entry): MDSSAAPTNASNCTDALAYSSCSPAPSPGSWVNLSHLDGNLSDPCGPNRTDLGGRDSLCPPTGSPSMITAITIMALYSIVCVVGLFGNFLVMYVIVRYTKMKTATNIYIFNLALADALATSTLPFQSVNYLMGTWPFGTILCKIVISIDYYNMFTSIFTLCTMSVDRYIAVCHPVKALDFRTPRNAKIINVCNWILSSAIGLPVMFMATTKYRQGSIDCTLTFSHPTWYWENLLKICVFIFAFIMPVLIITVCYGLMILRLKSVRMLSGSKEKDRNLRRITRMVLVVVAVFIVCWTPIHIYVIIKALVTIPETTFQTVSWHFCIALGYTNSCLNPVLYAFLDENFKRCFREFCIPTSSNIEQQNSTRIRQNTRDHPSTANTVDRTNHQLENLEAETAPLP

In the case of `CC1(C)S[C@@H]2[C@H](NC(=O)[C@H](N)c3ccc(O)cc3)C(=O)N2[C@H]1C(=O)O` [AMOXICILLIN], the half-maximal activity concentration (AC50) is greater than 10 µM on Mu-type opioid receptor; greater than 30 µM on Adenosine receptor A1; greater than 30 µM in assay [1]; greater than 30 µM in assay [2]; greater than 30 µM in assay [3]; greater than 30 µM in assay [4].

As to `O=C1CN2Cc3c(ccc(Cl)c3Cl)N=C2N1` [ANAGRELIDE], the AC50 was greater than 30 µM at Mu-type opioid receptor; greater than 30 µM at Adenosine receptor A1; greater than 10 µM in assay [1]; greater than 10 µM in assay [2]; greater than 30 µM in assay [3]; greater than 30 µM in assay [4].

For `CCc1oc2ccccc2c1C(=O)c1cc(Br)c(O)c(Br)c1` [BENZBROMARONE], the AC50 on Mu-type opioid receptor was 26 µM; on Adenosine receptor A1 it was greater than 30 µM; in assay [1], greater than 10 µM; in assay [2], 3.74 µM; in assay [3] it was 26 µM; in assay [4] it was greater than 30 µM.

As for `[H]/N=C(\N/C(=N/[H])NCCCCCCNC(=N)NC(=N)Nc1ccc(Cl)cc1)Nc1ccc(Cl)cc1` [CHLORHEXIDINE], the AC50 on Mu-type opioid receptor was 13 µM; at Adenosine receptor A1, greater than 30 µM; in assay [1], greater than 10 µM; in assay [2] it was 4.34 µM; in assay [3] it was 3 µM; in assay [4], greater than 10 µM.

`Clc1cccc(Cl)c1N=C1NCCN1` [CLONIDINE]: the half-maximal activity concentration (AC50) is greater than 30 µM at Mu-type opioid receptor; greater than 30 µM at Adenosine receptor A1; greater than 10 µM in assay [1]; greater than 10 µM in assay [3]; greater than 30 µM in assay [4].

Turning to `COC(=O)[C@H](c1ccccc1Cl)N1CCc2sccc2C1` [CLOPIDOGREL], the half-maximal activity concentration (AC50) at Mu-type opioid receptor is 13 µM; on Adenosine receptor A1, greater than 30 µM; in assay [1], greater than 30 µM; in assay [2], 11 µM; in assay [3], greater than 30 µM; in assay [4], greater than 30 µM.

`CN1C[C@H](C(=O)N[C@]2(C)O[C@@]3(O)[C@@H]4CCCN4C(=O)[C@H](Cc4ccccc4)N3C2=O)C[C@@H]2c3cccc4[nH]cc(c34)C[C@H]21` [DIHYDROERGOTAMINE]: the AC50 was greater than 30 µM on Mu-type opioid receptor; greater than 30 µM at Adenosine receptor A1; greater than 10 µM in assay [1]; greater than 30 µM in assay [3]; greater than 30 µM in assay [4].

In the case of `CNCC[C@H](Oc1cccc2ccccc12)c1cccs1` [DULOXETINE], the concentration at half-maximal activity (AC50) on Mu-type opioid receptor is 12 µM; at Adenosine receptor A1 it was greater than 30 µM; in assay [1] it was greater than 10 µM; in assay [2], greater than 10 µM; in assay [4], greater than 30 µM.

Consider `Cc1cnc(NC(=O)C2=C(O)c3ccccc3S(=O)(=O)N2C)s1` [MELOXICAM], for which the concentration at half-maximal activity (AC50) on Mu-type opioid receptor is greater than 10 µM; at Adenosine receptor A1, greater than 30 µM; in assay [1], greater than 10 µM; in assay [2] it was greater than 10 µM; in assay [3], greater than 10 µM; in assay [4], greater than 30 µM.

For `COc1ccnc(C[S+]([O-])c2nc3ccc(OC(F)F)cc3[nH]2)c1OC` (stereo not drawn) [PANTOPRAZOLE], the AC50 at Mu-type opioid receptor is greater than 30 µM; on Adenosine receptor A1, greater than 30 µM; in assay [1], greater than 10 µM; in assay [2] it was greater than 10 µM; in assay [3], greater than 10 µM; in assay [4] it was greater than 30 µM.

On to `O=C1NC(=O)C(c2ccccc2)(c2ccccc2)N1` [PHENYTOIN], for which the concentration at half-maximal activity (AC50) was greater than 30 µM on Mu-type opioid receptor; greater than 30 µM on Adenosine receptor A1; greater than 10 µM in assay [1]; greater than 30 µM in assay [2]; greater than 30 µM in assay [3]; greater than 30 µM in assay [4].

Regarding `CC(C)C[C@H](CN)CC(=O)O` [PREGABALIN], the AC50 (on Mu-type opioid receptor; on Adenosine receptor A1; in assay [1]; in assay [2]; in assay [3]; in assay [4]) was greater than 30 µM in each case.

Take `CCOc1cc(CC(=O)N[C@@H](CC(C)C)c2ccccc2N2CCCCC2)ccc1C(=O)O` [REPAGLINIDE]: the AC50 (at Mu-type opioid receptor; on Adenosine receptor A1; in assay [2]; in assay [3]; in assay [4]) was greater than 30 µM throughout.

In the case of `NC(=O)c1ncn([C@@H]2O[C@H](CO)[C@@H](O)[C@H]2O)n1` [RIBAVIRIN], the half-maximal activity concentration (AC50) was greater than 30 µM at Mu-type opioid receptor; greater than 10 µM in assay [1]; greater than 10 µM in assay [2]; greater than 10 µM in assay [3]; greater than 10 µM in assay [4].

In the case of `CCCN(CCC)CCc1cccc2c1CC(=O)N2` [ROPINIROLE], the AC50 at Mu-type opioid receptor is 9.67 µM; at Adenosine receptor A1, greater than 30 µM; in assay [1], greater than 10 µM; in assay [2], 12 µM; in assay [3], greater than 30 µM; in assay [4], greater than 30 µM.

In the case of `CCCN(CCc1cccs1)[C@H]1CCc2c(O)cccc2C1` [ROTIGOTINE], the AC50 on Mu-type opioid receptor is 8.6 µM; on Adenosine receptor A1 it was greater than 30 µM; in assay [2] it was greater than 10 µM; in assay [3], 1.3 µM; in assay [4] it was greater than 30 µM.

Consider `CC[C@H]1OC(=O)[C@H](C)[C@@H](O[C@H]2C[C@@](C)(OC)[C@@H](O)[C@H](C)O2)[C@H](C)[C@@H](O[C@@H]2O[C@H](C)C[C@H](N(C)C)[C@H]2O)[C@](C)(O)C[C@@H](C)/C(=N\OCOCCOC)[C@H](C)[C@@H](O)[C@]1(C)O` [ROXITHROMYCIN], for which the concentration at half-maximal activity (AC50) (on Mu-type opioid receptor; at Adenosine receptor A1; in assay [2]; in assay [3]; in assay [4]) was greater than 30 µM in each case.

As to `CC(C)N(CCCCOCC(=O)NS(C)(=O)=O)c1cnc(-c2ccccc2)c(-c2ccccc2)n1` [SELEXIPAG], the half-maximal activity concentration (AC50) (at Mu-type opioid receptor; on Adenosine receptor A1; in assay [1]; in assay [2]; in assay [3]; in assay [4]) was greater than 30 µM in each case.

For `CC(=O)S[C@@H]1CC2=CC(=O)CC[C@]2(C)[C@H]2CC[C@@]3(C)[C@@H](CC[C@@]34CCC(=O)O4)[C@H]12` [SPIRONOLACTONE], the half-maximal activity concentration (AC50) is greater than 30 µM at Mu-type opioid receptor; greater than 30 µM at Adenosine receptor A1; greater than 10 µM in assay [1]; greater than 30 µM in assay [2]; greater than 30 µM in assay [3]; greater than 30 µM in assay [4].

With `CCCCNc1ccc(C(=O)OCCN(C)C)cc1` [TETRACAINE], the half-maximal activity concentration (AC50) on Mu-type opioid receptor is greater than 10 µM; on Adenosine receptor A1, greater than 30 µM; in assay [1], greater than 10 µM; in assay [2], greater than 10 µM; in assay [3], greater than 10 µM; in assay [4], greater than 30 µM.

In the case of `Cn1c(=O)c2[nH]cnc2n(C)c1=O` [THEOPHYLLINE], the concentration at half-maximal activity (AC50) at Mu-type opioid receptor is greater than 30 µM; in assay [1], greater than 10 µM; in assay [2] it was greater than 10 µM; in assay [3], greater than 30 µM; in assay [4] it was greater than 30 µM.
